In paper PMC4790305, “An FDA-Drug Library Screen for Compounds with Bioactivities against Meticillin-Resistant Staphylococcus aureus (MRSA)” (Antibiotics, 2015):
Converted amounts (≈) assume the structure as drawn. Like-named read-outs stand apart in the source and are kept apart here.

Legend:
[1] = tested on: Adult normal human epidermal keratinocytes (NHEK); experiment: Human epidermal keratinocyte viability (GI50) assay; assay type: cell-based; settings: 120 h, read-out: Keratinocyte GI50
Description: Adult normal human epidermal keratinocytes (NHEK) were purchased from Lonza (catalog #00192627, Basel, Switzerland) and cultured in keratinocyte growth medium (Lonza KGM-Gold Bullet Kit) containing growth supplements (Lonza Reagent Pack) at 5% CO2 (37 °C). The cell viability assay was performed using the CellTiter-Glo Luminescent Cell Viability Assay protocol from Promega (www.promega.com, Fitchburg, WI, USA). Briefly, NHEK were treated with test compounds in keratinocyte growth medium in 96-well plates (Thermo Scientific Nunclon Delta, Waltham, MA, USA). Treated cells were incubated for 5 days at 5% CO2 (37 °C). Promega CellTiter-Glo Reagent was added and plates were shaken on an orbital shaker for […]. Next, well contents (100 μL) from each well were transferred into opaque 96-well plates (PerkinElmer OptiPlate-96) and luminescence measured by a microplate reader (Tecan Safire2).

[2] = tested on: VISA (ATCC-700699); experiment: Minimum inhibitory concentration (MIC) assay, VISA; assay type: cell-based, meticillin-resistant Staphylococcus aureus; settings: Staphylococcus aureus, ATCC 700699 / MRSA / VISA, read-out: MRSA MICs VISA
Source text: (§1) The 1163 FDA-approved drugs were purchased as a library set from Selleckchem (catalog #L1300). For MIC assays, Ivacaftor, Mupirocin and Tigecycline were purchased from Santa Cruz Biotechnology (Dallas, TX, USA). All other test compounds were purchased from Sigma-Aldrich (St. Louis, MO, USA) and were used without further purification. MRSA strains USA 100 (ATCCBAA-1681), USA 300 (ATCC-BAA-1680), USA400 (ATCC-BAA-1707) and VISA (ATCC-700699) were purchased from ATCC (Manassas, VA, USA).
(§2) The MICs of antibiotics and peptides were determined using the microdilution method from the Clinical and Laboratory Standards Institute (CLSI) guidelines. Briefly, bacteria were grown fresh from frozen stock in MH2 agar at 37 °C. After an overnight incubation, five MRSA colonies were selected to grow in cation-adjusted MH2 broth (BD Biosciences catalog #212322) in a shaker incubator at 37 °C, 220 RPM. Cells were grown to an optical density (OD600) of 0.15–0.16 using a Microplate Spectrophotometer (Molecular Devices Spectra Max Plus), which corresponds to 1–2 × 10^8 CFU/mL. Test compounds were constituted into 4 mM DMSO stock solutions and then subjected to two-fold serial dilution in a 96-well plate with concentrations ranging from 100 to 0.2 μM in duplicates. The amount of 50 μL of microbial culture containing ~1–2 × 10^6 CFU/mL of microbes in the respective broths was introduced into each well containing 50 μL of compound. After an overnight incubation at 35 °C, OD600 measurements were conducted using the Microplate Spectrophotometer. The MIC was defined as the lowest drug concentration (μM) required to inhibit microbial growth.

[3] = tested on: MRSA USA 100 (ATCCBAA-1681); experiment: Minimum inhibitory concentration (MIC) assay, MRSA USA 100; assay type: cell-based, meticillin-resistant Staphylococcus aureus; settings: Staphylococcus aureus, read-out: MRSA MICs USA 100
Source text: as §1, §2

[4] = tested on: MRSA USA400 (ATCC-BAA-1707); experiment: Minimum inhibitory concentration (MIC) assay, MRSA USA 400; assay type: cell-based, meticillin-resistant Staphylococcus aureus; settings: Staphylococcus aureus, read-out: MRSA MICs USA 400
Source text: as §1, §2

[5] = tested on: MRSA USA 300 (ATCC-BAA-1680); experiment: Minimum inhibitory concentration (MIC) assay, MRSA USA 300; assay type: cell-based, meticillin-resistant Staphylococcus aureus; settings: Staphylococcus aureus, read-out: MRSA MICs USA 300
Source text: as §1, §2

[6] = tested on: panel of clinical MRSA strains (USA 100, USA 300, USA 400 and VISA); experiment: MIC assay against panel of clinical MRSA strains; assay type: cell-based, meticillin-resistant Staphylococcus aureus; settings: Staphylococcus aureus, across USA 100, USA 300, USA 400 and VISA
Source text: as §1, §2

[7] = tested on: MRSA USA300; experiment: Bactericidal/static determination assay; assay type: cell-based, meticillin-resistant Staphylococcus aureus; settings: MRSA USA300, 4× MIC; bactericidal when ≥99.9% cell death
Description: After the MICs of test compounds were determined using the microdilution method described in Section 2.2, the entire well contents (100 μL) corresponding to 4× the MIC of the antibiotic or peptide were transferred and spread on fresh sterile MH2 agar plates. The plates were incubated overnight at 37 °C and the number of colony forming units (CFU) was determined the next day. A compound was classified as bactericidal when ≥99.9% cell death was observed.

[8] = tested on: MRSA USA300; experiment: Time-kill assay; assay type: cell-based, meticillin-resistant Staphylococcus aureus; settings: MRSA USA300, 4× MIC, within 6 h
Description: Bacteria cells were grown to 1 × 10^8 CFU/mL in MH2 broth and then diluted […] into 5 mL aliquots to a density of 1 × 10^6 CFU/mL in a flask. Test compounds pre-dissolved in DMSO corresponding to 4× their MICs were then added into each flask with a final DMSO concentration of 2.5% v/v. The negative control was 2.5% DMSO. The flasks were incubated in a shaking incubator (220 RPM) at 37 °C. Samples (100 μL) were taken hourly from the flasks between t = 0 and t = 6 h. The samples were serially diluted in MH2 broth before plating on sterile MH2 agar and incubated overnight at 37 °C. A bacteria count for each plate was conducted the next day. A graph of Log CFU/mL was plotted against time to obtain the time-kill graph.

[9] = tested on: rats; settings: rat, cited from earlier work
[10] = tested on: MRSA USA100; experiment: Single-point 10 μM bacteria growth inhibition assay; assay type: cell-based, meticillin-resistant Staphylococcus aureus; settings: MRSA USA 100
Source text: as §1
MRSA USA100 was grown from frozen glycerol stock on Mueller Hinton 2 (MH2) agar overnight at 37 °C. Five colonies were selected from the agar plate and grown in cation-adjusted MH2 broth (BD Biosciences catalog #212322, Franklin Lakes, NJ, USA) in a shaker incubator at 37 °C, 220 RPM. Cells were grown to 1–2 × 10^8 CFU/mL and diluted 1:100 in MH2 broth. An amount of 50 μL of test compounds pre-dissolved in MH2 broth at 20 μM concentrations were added in duplicates into each well in a 96-well plate. A total of 50 μL of bacteria inoculums containing ~1 × 10^6 CFU/mL of bacteria in MH2 broth was introduced into each well containing the test compounds. The final DMSO concentration was kept at 2.5% in each well. After an overnight incubation at 35 °C, optical density (OD600) of each well was determined using the Microplate Spectrophotometer (Molecular Devices Spectra Max Plus, Sunnyvale, CA, USA).

[11] = intravenously administered; cited from earlier work
[12] = tested on: mouse; parameters: method as in PMID 12724731; settings: cited from earlier work
[13] = 5 days incubation, CellTiter-Glo
[14] = printed conversion of μM values

SMILES | GI50 [1, 13] | MIC ([2]; microdilution, overnight 35 °C) | MIC ([3]; microdilution, overnight 35 °C) | MIC ([4]; microdilution, overnight 35 °C) | MIC ([5]; microdilution, overnight 35 °C) | MIC [6] | MIC [6, 14] | Bactericidal/static classification [7] | log reduction in bacteria count [8] | intraperitoneal LD50 ([9]; intraperitoneal) | Antibacterial activity in single-point screen [10] | intravenous LD50 ([9]; intravenous) | GI50 [1] | MIC [2] | MIC [3] | MIC [4] | MIC [5] | half-life [11] | intravenous LD50 [12]
C/C(=C\C(=O)OCCCCCCCCC(=O)O)C[C@@H]1OC[C@H](C[C@@H]2O[C@H]2[C@@H](C)[C@H](C)O)[C@@H](O)[C@H]1O [Mupirocin] | > 50 µM | > 100 µM | 0.78 µM (≈ 0.39 µg/mL) | 0.39 µM (≈ 0.195 µg/mL) | 0.39 µM (≈ 0.195 µg/mL) |  |  |  |  |  |  |  |  |  |  |  |  |  | 
O=c1[nH]c(=O)n([C@H]2C[C@H](O)[C@@H](CO)O2)cc1F [Floxuridine] | > 100 µM | 0.00625 µM (≈ 0.00154 µg/mL) | 0.025 µM (≈ 0.00615 µg/mL) | 0.0125 µM (≈ 0.00308 µg/mL) | 0.00313 µM (≈ 0.000771 µg/mL) | 0.00313 to 0.025 µM | 0.77 to 6.16 ng/mL | bactericidal | ~2 log | 1600 mg/kg | either bacteriostatic or bactericidal |  |  |  |  |  |  |  | 
Nc1ccn([C@@H]2O[C@H](CO)[C@@H](O)C2(F)F)c(=O)n1 [Gemcitabine] | 1.9 ± 0.2 µM | 0.05 µM (≈ 0.0132 µg/mL) | 0.1 µM (≈ 0.0263 µg/mL) | 0.1 µM (≈ 0.0263 µg/mL) | 0.05 µM (≈ 0.0132 µg/mL) | 0.05 to 0.1 µM | 10 to 20 ng/mL |  |  |  | either bacteriostatic or bactericidal | 236 mg/kg |  |  |  |  |  |  | 
CN[C@H](CC(C)C)C(=O)N[C@H]1C(=O)N[C@@H](CC(N)=O)C(=O)N[C@H]2C(=O)N[C@H]3C(=O)N[C@H](C(=O)N[C@H](C(=O)O)c4cc(O)cc(O)c4-c4cc3ccc4O)[C@H](O)c3ccc(c(Cl)c3)Oc3cc2cc(c3O[C@@H]2O[C@H](CO)[C@@H](O)[C@H](O)[C@H]2O[C@H]2C[C@](C)(N)[C@H](O)[C@H](C)O2)Oc2ccc(cc2Cl)[C@H]1O [Vancomycin] |  |  |  |  |  |  |  |  |  |  |  |  | > 100 µM | 6.25 µM (≈ 9.06 µg/mL) | 0.78 µM (≈ 1.13 µg/mL) | 0.78 µM (≈ 1.13 µg/mL) | 0.78 µM (≈ 1.13 µg/mL) |  | 
O=c1[nH]cc(F)c(=O)[nH]1 [5-fluorouracil, 5-Fluorouracil] | 33.3 ± 2.6 µM | 6.25 µM (≈ 0.813 µg/mL) | 6.25 µM (≈ 0.813 µg/mL) | 3.13 µM (≈ 0.407 µg/mL) | 3.13 µM (≈ 0.407 µg/mL) | 3.13 to 6.25 µM |  |  |  |  | either bacteriostatic or bactericidal |  |  |  |  |  |  | 10 to 16 min | 81 mg/kg
CC(C)(C)c1cc(C(C)(C)C)c(NC(=O)c2c[nH]c3ccccc3c2=O)cc1O [Ivacaftor] | 5.9 ± 0.5 µM | 6.25 µM (≈ 2.45 µg/mL) | 6.25 µM (≈ 2.45 µg/mL) | 6.25 µM (≈ 2.45 µg/mL) | 6.25 µM (≈ 2.45 µg/mL) | 6.25 µM |  |  |  |  | either bacteriostatic or bactericidal |  |  |  |  |  |  |  | 
CN(C)c1cc(NC(=O)CNC(C)(C)C)c(O)c2c1C[C@H]1C[C@H]3[C@H](N(C)C)C(O)=C(C(N)=O)C(=O)[C@@]3(O)C(O)=C1C2=O [Tigecycline] | 20.6 ± 4.2 µM | 1.56 µM (≈ 0.914 µg/mL) | 0.78 µM (≈ 0.457 µg/mL) | 0.78 µM (≈ 0.457 µg/mL) | 0.78 µM (≈ 0.457 µg/mL) |  |  |  |  |  |  |  |  |  |  |  |  |  | 
CCC[C@@H]1C[C@@H](C(=O)N[C@@H]([C@H]2O[C@H](SC)[C@H](O)[C@@H](O)[C@H]2O)[C@H](C)Cl)N(C)C1 [Clindamycin] | > 50 µM | > 100 µM | > 100 µM | 0.2 µM (≈ 0.085 µg/mL) | 0.2 µM (≈ 0.085 µg/mL) |  |  |  |  |  |  |  |  |  |  |  |  |  | 
CC(=O)NC[C@H]1CN(c2ccc(N3CCOCC3)c(F)c2)C(=O)O1 [Linezolid] | > 100 µM | 3.13 µM (≈ 1.06 µg/mL) | 6.25 µM (≈ 2.11 µg/mL) | 6.25 µM (≈ 2.11 µg/mL) | 6.25 µM (≈ 2.11 µg/mL) |  |  | bacteriostatic | less than a log reduction |  |  |  |  |  |  |  |  |  | 
C[C@H]1c2cccc(O)c2C(=O)C2=C(O)[C@]3(O)C(=O)C(C(N)=O)=C(O)[C@@H](N(C)C)[C@@H]3[C@@H](O)[C@@H]21 [Doxycycline] | 36.9 ± 3.7 µM | 12.5 µM (≈ 5.56 µg/mL) | 0.39 µM (≈ 0.173 µg/mL) | 1.56 µM (≈ 0.693 µg/mL) | 0.78 µM (≈ 0.347 µg/mL) |  |  |  |  |  |  |  |  |  |  |  |  |  | 
OC1(c2ccc(Cl)c(C(F)(F)F)c2)CCN(CCCC(c2ccc(F)cc2)c2ccc(F)cc2)CC1 [Penfluridol] | 2.1 ± 0.6 µM | 3.13 µM (≈ 1.64 µg/mL) | 3.13 µM (≈ 1.64 µg/mL) | 3.13 µM (≈ 1.64 µg/mL) | 3.13 µM (≈ 1.64 µg/mL) | 3.13 µM |  |  |  |  | either bacteriostatic or bactericidal |  |  |  |  |  |  |  | 
